From patent publication US8383822B2, “Substituted oxazolidinones and their use” (Bayer Intellectual Property GmbH, priority 2007, dated 2013) come the findings set out here.

For one assay, the target named is T1, factor Xa (Homo sapiens, UniProt P00742).
T1 construct: tissue Octapharma; host or cells: citrate plasma
The experiment in a line: biochemical. As to conditions: factor Xa inhibition in citrate plasma (Octapharma), factor X activated by Russel viper venom, ChromozymX substrate, read at about 12 min. The protocol:
a.4) Determination of the Factor Xa-inhibitory Activity of the Potential Inhibitors in Plasma Samples
To determine the inhibition of factor Xa in plasma samples, the factor X present in plasma is activated by a protease from rattlesnake toxin. The factor Xa activity or its inhibition by potential inhibitors is then measured by addition of a chromogenic substrate.
Various concentrations of the substances to be tested are dissolved in dimethyl sulphoxide and mixed with an aqueous refludan solution (10 μg/ml). In clear 96-well plates having a flat bottom, 30 μl of citrate plasma (Octapharma) are mixed with 10 μl of the substance dilution.

For another assay, the target named is thrombin (Homo sapiens, UniProt P00734). The experiment in a line: Thrombin-inhibitory activity in plasma samples (ecarin, fluorogenic thrombin substrate). The format is biochemical. The settings on record: thrombin inhibition in citrate plasma (Octapharma), ecarin-stimulated, read at about 12 min. The method, then:
a.5) Determination of the Thrombin-inhibitory Activity of the Potential Inhibitors in Plasma Samples
Various concentrations of the substances to be tested are dissolved in dimethyl sulphoxide and diluted with water.

T1 sequence (P00742 235-488 limits assumed): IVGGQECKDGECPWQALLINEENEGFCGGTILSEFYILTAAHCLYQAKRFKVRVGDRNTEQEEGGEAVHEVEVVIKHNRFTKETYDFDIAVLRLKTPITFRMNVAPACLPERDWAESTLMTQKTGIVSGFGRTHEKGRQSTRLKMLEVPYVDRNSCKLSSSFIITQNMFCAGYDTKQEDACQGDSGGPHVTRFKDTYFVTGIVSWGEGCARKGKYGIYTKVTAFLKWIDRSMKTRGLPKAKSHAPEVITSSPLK
T1 sequence (P00742 41-179 limits assumed): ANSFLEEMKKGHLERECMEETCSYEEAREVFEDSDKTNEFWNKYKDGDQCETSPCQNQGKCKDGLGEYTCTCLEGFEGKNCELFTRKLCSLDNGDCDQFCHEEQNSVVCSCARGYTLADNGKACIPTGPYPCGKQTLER

For the molecule `COc1cc(N2C[C@H](CNC(=O)c3ccc(Cl)s3)OC2=O)ccc1-n1cccc(CCN[C@H]2CC[C@H](O)CC2)c1=O` [Example 6, 5-Chloro-N-{[(5S)-3-{4-[3-{2-[(trans-4-hydroxycyclohexyl)amino]ethyl}-2-oxopyridin-1(2H)-yl]-3-methoxyphenyl}-2-oxo-1,3-oxazolidin-5-yl]methyl}thiophene-2-carboxamide], the figures for the IC50 against factor Xa and against thrombin were 0.031 µM and 0.143 µM, respectively.

As to `COCc1cc(N2C[C@H](CNC(=O)c3ccc(Cl)s3)OC2=O)ccc1-n1cccc(CCNCCO)c1=O` [Example 9, 5-Chloro-N-{[(5S)-3-{4-[3-{2-[(2-hydroxyethyl)amino]ethyl}-2-oxopyridin-1(2H)-yl]-3-(methoxy-methyl)phenyl}-2-oxo-1,3-oxazolidin-5-yl]methyl}thiophene-2-carboxamide], the IC50 (as a rule, the concentration that inhibits the measured activity by half) against factor Xa turned out to be 0.011 µM; at thrombin it was 0.01 µM.

In the case of `COCc1cc(N2C[C@H](CNC(=O)c3ccc(Cl)s3)OC2=O)ccc1-n1cccc(CCN[C@H]2CC[C@H](O)CC2)c1=O` [Example 10, 5-Chloro-N-{[(5S)-3-{4-[3-{2-[(trans-4-hydroxycyclohexyl)amino]ethyl}-2-oxopyridin-1(2H)-yl]-3-(methoxymethyl)phenyl}-2-oxo-1,3-oxazolidin-5-yl]methyl}thiophene-2-carboxamide], the IC50 at factor Xa came out at 0.015 µM; against thrombin, 0.024 µM.

As for `COCc1cc(N2C[C@H](CNC(=O)c3ccc(Cl)s3)OC2=O)ccc1-n1cccc(CCN2CCN(C)CC2)c1=O` [Example 13], the IC50 at factor Xa worked out at 0.017 µM; at thrombin, 0.016 µM.

In the case of `COCc1cc(N2C[C@H](CNC(=O)c3ccc(Cl)s3)OC2=O)ccc1-n1cccc(CCNCCCO)c1=O` [Example 16], the IC50 amounted to 0.018 µM at factor Xa and 0.01 µM against thrombin.

Regarding `Cc1cc(N2C[C@H](CNC(=O)c3ccc(Cl)s3)OC2=O)ccc1-n1cccc(OCCN[C@H]2CC[C@H](O)CC2)c1=O` [Example 21, 5-Chloro-N-{[(5S)-3-{4-[3-{2-[(trans-4-hydroxycyclohexyl)amino]ethoxy}-2-oxopyridin-1(2H)-yl]-3-methylphenyl}-2-oxo-1,3-oxazolidin-5-yl]methyl}thiophene-2-carboxamide], the IC50 on factor Xa is 0.011 µM; against thrombin it was 0.034 µM.

`CCCc1cc(N2C[C@H](CNC(=O)c3ccc(Cl)s3)OC2=O)ccc1-n1cccc(OCCNCCO)c1=O` [Example 36, 5-Chloro-N-{[(5S)-3-{4-[3-{2-[(2-hydroxyethyl)amino]ethoxy}-2-oxopyridin-1(2H)-yl]-3-propyl-phenyl}-2-oxo-1,3-oxazolidin-5-yl]methyl}thiophene-2-carboxamide]: the IC50 at factor Xa stood at 0.029 µM; against thrombin, 0.036 µM.

Turning to `Cc1cc(N2C[C@H](CNC(=O)c3ccc(Cl)s3)OC2=O)cc(C)c1-n1cccc(CCNCCO)c1=O` [Example 37, 5-Chloro-N-{[(5S)-3-{4-[3-{2-[(2-hydroxyethyl)amino]ethyl}-2-oxopyridin-1(2H)-yl]-3,5-dimethylphenyl}-2-oxo-1,3-oxazolidin-5-yl]methyl}thiophene-2-carboxamide], the IC50 was found to be 0.029 µM on factor Xa and 0.015 µM at thrombin.
